This is an account of results in publication PMC8279484 (Journal of Medicinal Chemistry, 2021).

For one data set, the system named is IL-6. The data set can be described thus: LPS-induced IL-6 release from THP-1 Lucia monocytes (multiplex electrochemiluminescence). It counts as cell-based, human. The conditions noted are these: Dex 1 μM; 2 1 pM; LPS 50 ng/mL, 24 h. The protocol:
(§1) LXA41 and all of the tested sLXms were dissolved in ethanol and further diluted in a culture medium (final ethanol concentration 0.1%; equivalent concentrations were used as the vehicle control). Prior to in vitro experiments, THP-1-Lucia NF-κB cells were harvested and plated at 1 × 10^5 cells/well on 96-well plates and left to settle in the incubator at 37 °C, 95% humidity, and 5% CO2, in 0.1% FBS-containing media, pretreated for 30 min with increasing doses of LXA41, sLXms (from 10^–12 to 10^–6 M), or appropriate controls, followed by stimulation with 50 ng/mL LPS for 24 h. Untreated (Unt) or vehicle-treated (Veh) cells were used as negative controls; 1 pM (1R)-5, the (1R)-epimer of the benzo-mimetic, was used as a positive control for any aromatic mimetic; and, finally, we compared the observed effects to the conventional glucocorticoid dexamethasone (Dex) treatment, at 1 μM.
(§2) After 24 h of exposure to LXA41, sLXms, or vehicle, followed by LPS stimulation (50 ng/mL), as described above, THP-1-Lucia NF-κB-cell supernatants were collected and cleared by centrifugation. Concentrations of IFN-γ, IL-1β, IL-6, IL-8, IL-10, IL-12p70, and TNF-α in culture supernatants were assessed by electro-chemi-luminescent detection, using a commercially available human 96-well plate “multiplex” (several analytes in the same well) kit for tissue culture samples, according to the manufacturers’ guidelines.
(§3) The “coding” of the heat-map indicates the arbitrary criteria to assign points to each single PD component (efficacy = Imax or Emax; potency = IC50 or EC50; slope = HS) to generate a final (aggregate) relative PD score. If a single PD component was greater than the reference level (x > 1), then the single-component relative score was arbitrarily set to +1 (light green) or +2 (dark green). If a single PD component was equal to the reference level (x = 1), then the single-component relative score was arbitrarily set to 0 (gray). If a single PD component was smaller than the reference level (x < 1), then the single-component relative score was arbitrarily set to −1 (light red) or −2 (dark red). If the curve of a single PD component was best fitting to a flat line (x = 0), then the single-component relative score was arbitrarily set to −4 (purple) (Table S1).

For the next data set, the system named is IL-1β. The data set can be described thus: LPS-induced IL-1β release from THP-1 Lucia monocytes (multiplex electrochemiluminescence). It counts as cell-based, human. The conditions noted are these: Dex 1 μM; 2 1 pM; LPS 50 ng/mL, 24 h. How it is done:
as §1, §2, §3

Another data set has as its system IFNγ. The data set can be described thus: LPS-induced IFNγ release from THP-1 Lucia monocytes (multiplex electrochemiluminescence). Format: cell-based, human. The conditions noted are these: Dex 1 μM; 2 1 pM; LPS 50 ng/mL, 24 h. How it is done: as §1, §2, §3
In a further data set the test system is IL-8. The data set can be described thus: LPS-induced IL-8 release from THP-1 Lucia monocytes (multiplex electrochemiluminescence). It counts as cell-based, human. The following applies: Dex 1 μM; 1 1 nM; (R)-6 concentration not given. The protocol: as §1, §2
Data set [1] has as its system THP-1 LUCIA monocytes. The data set can be described thus: Intrinsic cytotoxicity: LDH release without LPS. The following applies: absence of LPS, 24 h; controls Dex 1 μM, 2 1 pM, 5 1 pM. Format: cell-based, human. The protocol: (§4) We investigated the potential cytotoxicity of all candidate sLXms by assaying LDH release.[50] The response to LPS was arbitrarily set to 100%, and values were expressed relative to this. As previously reported by others, LPS provokes LDH release.[51] […] Ultimately, untreated cells defined the spontaneous cell release thresholds.
(§5) Lactate dehydrogenase (LDH) was assayed in cell supernatants to investigate possible cytotoxicity of the lead compound. LDH is rapidly released into the culture medium after disruption of the plasma membrane.[67],[69] After 24 h of exposure to sLXms, vehicle, or controls, followed by LPS stimulation, as described above, THP-1-Lucia NF-κB-cell supernatants were collected and LDH was assayed. Cytotoxicity was evaluated relative to vehicle controls. Maximum releasable LDH was determined in cells lysed with 2% Triton-X-100 (Sigma-Aldrich, Ireland). LDH levels were assessed by reading the absorbance at 490 nm (protein) and 690 nm (background noise), using a spectrophotometer (SPECTRAMAX M2, Molecular Devices (U.K.) Limited).
Background: Release of lactate dehydrogenase indicates damage to the cell membrane.

In data set [2] the test system is THP-1 LUCIA monocytes. The data set can be described thus: Extrinsic cytotoxicity: LDH release after LPS challenge. It counts as cell-based, human. The conditions noted are these: Dex 1 μM. The protocol:
as §4, §5

A further data set deals with C57BL/6J mice. The data set can be described thus: Murine zymosan-induced peritonitis. It counts as in vivo, mouse. The protocol: Male C57BL/6J mice of 9 weeks of age were purchased from Charles River (Kent, U.K.) and were housed in a specific pathogen-free facility in individually ventilated and filtered cages under positive pressure. Peritonitis was induced in mice by ip injection of zymosan (purchased from Sigma-Aldrich; 1 mg per mouse in 0.5 mL of phosphate-buffered saline (PBS)).[73] Mice were treated with dexamethasone (1 μg/g) purchased from Sigma-Aldrich 1 h prior to zymosan injection or (R)-6 (2 and 6 ng/g) (200 μL IP) 30 min prior to zymosan injection. Peritoneal cells were collected by lavage 4 h after injection of zymosan. The local Animal Use and Care Committee and The UK Home Office approved the animal experiments in accordance with the derivatives of both The Home Office Guidance on the Operation of Animals (Scientific Procedures) Act 1986 and The Guide for the Care and Use of Laboratory Animals of the National Research Council.
Surface marker expression on peritoneal cells was assessed by flow cytometry with data collection on a FACSCalibur (Becton Dickinson). Data were analyzed with FlowJo analysis software (Treestar Inc.). Cells were stained with AlexaFluor488 conjugated anti-F4/80 (clone BM8; eBioscience); APC conjugated anti-CD11b (clone M1/70; eBioscience) and Pacific blue conjugated anti-Ly6G (clone 1A8; BioLegend) antibodies. Prior to surface staining, peritoneal cells were counted manually (Neubauer chamber) with Turks solution. Using appropriate fluorescence minus one (FMO) controls, quadrants were drawn, and data were plotted on logarithmic-scale density- or dot-plots.

A further data set concerns the target T1, ALX/FPR2 receptor (Homo sapiens, UniProt P25090).
T1 construct: host or cells: HEK-293, stably double-transfected FPR2+/Gαq+
T1 sequence (P25090 1-351): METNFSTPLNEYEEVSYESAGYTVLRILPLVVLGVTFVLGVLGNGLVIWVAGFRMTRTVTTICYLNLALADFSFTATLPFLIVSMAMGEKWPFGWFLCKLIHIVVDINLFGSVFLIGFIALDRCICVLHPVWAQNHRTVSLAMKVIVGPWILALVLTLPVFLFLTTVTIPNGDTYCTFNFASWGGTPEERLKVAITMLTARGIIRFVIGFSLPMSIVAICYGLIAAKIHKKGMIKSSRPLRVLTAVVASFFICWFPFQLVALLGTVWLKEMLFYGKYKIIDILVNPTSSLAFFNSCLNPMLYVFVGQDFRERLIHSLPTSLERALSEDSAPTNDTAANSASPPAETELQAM
The data set can be described thus: Intracellular calcium flux in FPR2+/Gαq+ stably transfected HEK-293. Format: cell-based. The conditions noted are these: ATP 1 μM; Wp 2 nM. The protocol:
HEK-293-transfected and wt cell lines were cultured in Dulbecco’s modified Eagle’s medium (DMEM Glutamax, 4 mM L-glu and 4.50 g/L glucose—Gibco, Ireland) supplemented with heat-inactivated (30 min at 56C) 10% (v/v) FBS (Invitrogen, U.K.), 50 U penicillin, and 50 μg of streptomycin (Invitrogen, U.K.). As stably double-transfected FPR2^+/Gαq^+ HEK-293 cells were resistant to Geneticin and Hygromycin, these were used as selective antibiotics (500 and 100 μg/mL, respectively) to maintain the stable double transfection with the ALX/FPR2 receptor and the Gαq subunit coupled to it. Immediately prior to calcium measurement, fluorescently labeled cells were treated with 10^–11/–9/–7M LXA41 or sLXms using an injection system coupled to the fluorescence reader.
To explore the mechanism of action through which the sLXm lead compound exerts the effects seen here, its interaction with the ALX/FPR2 receptor was investigated and agonist-induced intracellular calcium transients were measured using an engineered cell line stably overexpressing the ALX/FPR2 receptor and the Gαq subunit coupled to it (Figure S6). Wild-type HEK cells were used as controls, to verify the specificity of the agonism toward ALX/FPR2, as previously reported.[36] Briefly, prior to cell plating, sterile 96-well plates (black-sided with optically clear glass flat bottoms) were PDL-coated overnight. Subsequently, 2 × 10^5 wild-type cells and overexpressed cells/well were cultured for 18 h in DMEM complete media (containing Ca^2+ and Mg^2+) to facilitate adherence prior to labeling with Fluo-4 dye. After 1 h of incubation at 37 °C with Fluo-4, cells were gently washed twice and placed in 100% Hanks’ balanced salt solution (HBSS; 37 °C) before reading the fluorescence (485/535 nm), using a spectrophotometer conjugated with an injection system (Clariostar BMG LABTECH plate reader), allowing addition to the cells of controls ([…], 2 nM Wp, a synthetic ALX/FPR2 agonist) or experimental treatments [10 pM, 1 nM, and 100 nM LXA41 or (R)-6].
During calcium flux measurement, the kinetic steps involved were the following: the baseline fluorescent signal was measured for 20 s, followed by 100 s immediately after agonist injection. Subsequently, 2% Triton-X-100 was added to lyse the cells (monitoring for 20 s the maximal release of calcium ions in the extracellular environment) and, finally, 25 mM tetraacetic acid (EGTA) was added to chelate calcium ions (monitoring for additional 20 s the minimal detection of calcium ions in the extracellular environment) (Figure S7).
as §3
In general terms: Calcium flux is commonly read through the fluorescence of an indicator in the cells.

The next data set concerns wild-type HEK-293 cells. The data set can be described thus: Intracellular calcium flux in wild-type HEK-293 (specificity control). It counts as cell-based, human. How it is done:
To explore the mechanism of action through which the sLXm lead compound exerts the effects seen here, its interaction with the ALX/FPR2 receptor was investigated and agonist-induced intracellular calcium transients were measured using an engineered cell line stably overexpressing the ALX/FPR2 receptor and the Gαq subunit coupled to it (Figure S6). Wild-type HEK cells were used as controls, to verify the specificity of the agonism toward ALX/FPR2, as previously reported.[36] Briefly, prior to cell plating, sterile 96-well plates (black-sided with optically clear glass flat bottoms) were PDL-coated overnight. Subsequently, 2 × 10^5 wild-type cells and overexpressed cells/well were cultured for 18 h in DMEM complete media (containing Ca^2+ and Mg^2+) to facilitate adherence prior to labeling with Fluo-4 dye. After 1 h of incubation at 37 °C with Fluo-4, cells were gently washed twice and placed in 100% Hanks’ balanced salt solution (HBSS; 37 °C) before reading the fluorescence (485/535 nm), using a spectrophotometer conjugated with an injection system (Clariostar BMG LABTECH plate reader), allowing addition to the cells of controls (1 mM ATP, a GPCR purinergic agonist, 2 nM Wp, a synthetic ALX/FPR2 agonist) or experimental treatments [10 pM, 1 nM, and 100 nM LXA41 or (R)-6].

The test system of another data set is NF-κB. Also on record: method as in PMID 30213823. The following applies: LXA4 1 0.1 nM; 2 1 nM; cited from earlier work.

Turning to `C[C@@H]1C[C@H]2[C@@H]3CCC4=CC(=O)C=C[C@]4(C)[C@@]3(F)[C@@H](O)C[C@]2(C)[C@@]1(O)C(=O)CO` [Dex, dexamethasone, reference compound], in the data set with IL-6, the “Imax, IL-6 release, single-point controls” value was determined as 98 ± 1%. In addition, the “Imax, IL-1β release, single-point controls” value in the data set on IL-1β is 86 ± 6%. Besides, the “attenuation of IFNγ release, single-point controls” value with IFNγ was 56 ± 2%. In the data set on IL-8, the “enhancement of LPS-induced secretion of IL-8” value worked out at 2.5 fold. Moreover, in the data set on THP-1 LUCIA monocytes [1], the “intrinsic LDH release versus vehicle / spontaneous cell release” value is “did not display any significant cytotoxic effect”. In the data set on THP-1 LUCIA monocytes [2], the “effect on LPS-induced LDH” value is reported as “did not reduce LPS-induced LDH”. Besides, the “Total no of PMNs” value with C57BL/6J mice (Dex ip (1 mg/kg in Figure 9) + zymosan 40 mg/kg, n = 5 mice) is listed as 2.4 ± 0.7 × 10^6/mL. Besides, the “relative proportion of PMNs and monocytes/macrophages (flow cytometry)” value with C57BL/6J mice (peritoneal cells, data not shown) was “not to be altered”.
With `Nc1ncnc2c1ncn2[C@@H]1O[C@H](COP(=O)(O)OP(=O)(O)OP(=O)(O)O)[C@@H](O)[C@H]1O` [ATP], the “Ca^2+ mobilization by positive controls” value on ALX/FPR2 receptor is recorded as “Ca^2+ mobilization was observed”. Moreover, in the data set on wild-type HEK-293 cells, the “Ca^2+ mobilization in wild-type HEK-293 cells” value is recorded as “stimulated Ca^2+ mobilization”.
On the same counts, the results for W-peptide [Wp] are “Ca^2+ mobilization was observed” and “without effect”.
On to `CCCCC[C@@H](O)c1ccccc1/C=C/[C@@H](O)[C@@H](O)CCCC(=O)OC` [Compound 2, benzo-LXA4, reference compound], for which the “Imax, IL-6 release, single-point controls” value in the data set on IL-6 is listed as 42 ± 3%. Besides, the “Imax, IL-1β release, single-point controls” value with IL-1β came out at 59 ± 4%. Moreover, the “attenuation of IFNγ release, single-point controls” value in the data set on IFNγ is on record as “did not significantly alter”. For the same compound, in the data set with THP-1 LUCIA monocytes [1], the “intrinsic LDH release versus vehicle / spontaneous cell release” value was “did not display any significant cytotoxic effect”. The “effect on TNF-α-stimulated NF-κB activity” value with NF-κB was “reduced TNF-α-stimulated NF-κB activity”.
